Where “and” joins values, the source holds several entries; their conditions need not be identical. Equal values may be shown once. Bridge positions count the residues as written; N and C are the ends. Square brackets hold non-standard residues; d marks the D form. Peptide text beside a SMILES is read from it. R8 = C=CCCCCCC[C@@](C)(N)C(=O)O; S5 = C=CCCC[C@](C)(N)C(=O)O
Test system: not listed separately
Test: circular dichroism
Settings: PBS; pH 7.4; rt °C; 100 uM

Molecule | helicity [%]
CC(=O)N[C@H](C(=O)N[C@@H](Cc1ccccc1)C(=O)N[C@]1(C)CCCCCC/C=C/CCC[C@@](C)(C(=O)N[C@@H](CCC(=O)O)C(=O)N[C@@H](CC(=O)O)C(=O)N[C@@H](CC(C)C)C(N)=O)NC(=O)[C@H](CCC(=O)O)NC(=O)[C@H](Cc2c[nH]cn2)NC(=O)[C@H](CC(N)=O)NC(=O)[C@H](Cc2ccccc2)NC(=O)[C@H](CCCCN)NC(=O)[C@H](CC(=O)O)NC1=O)[C@@H](C)O (Ac-TF[R8]DKFNHE[S5]EDL-NH2; staple (E) 3-10) | 16.1
Ac-TFLDKFNHEAEDL-NH2 | 8.6
CC(=O)N[C@H](C(=O)N[C@@]1(C)CCCC=CCCC[C@@](C)(C(=O)N[C@@H](CC(N)=O)C(=O)N[C@@H](Cc2c[nH]cn2)C(=O)N[C@@H](CCC(=O)O)C(=O)N[C@@H](C)C(=O)N[C@@H](CCC(=O)O)C(=O)N[C@@H](CC(=O)O)C(=O)N[C@@H](CC(C)C)C(N)=O)NC(=O)[C@H](CCCCN)NC(=O)[C@H](CC(=O)O)NC(=O)[C@H](CC(C)C)NC1=O)[C@@H](C)O | 21
CC(=O)N[C@@H](Cc1c[nH]cn1)C(=O)N[C@@H](CCC(=O)O)C(=O)N[C@@]1(C)CCCC=CCCC[C@@](C)(C(=O)N[C@@H](Cc2ccc(O)cc2)C(=O)N[C@@H](CCC(N)=O)C(=O)N[C@@H](CO)C(N)=O)NC(=O)[C@H](CC(C)C)NC(=O)[C@H](CC(=O)O)NC(=O)[C@H](CCC(=O)O)NC1=O (Ac-HE[S5]EDL[S5]YQS-NH2; staple 3-7) | 33.4
Ac-IEEQAKTFLDKFNHE-NH2 | 9.6
CC[C@H](C)[C@H](NC(C)=O)C(=O)N[C@@H](CCC(=O)O)C(=O)N[C@@H](CCC(=O)O)C(=O)N[C@@H](CCC(N)=O)C(=O)N[C@]1(C)CCCCCC/C=C/CCC[C@@](C)(C(=O)N[C@@H](CC(N)=O)C(=O)N[C@@H](Cc2c[nH]cn2)C(=O)N[C@@H](CCC(=O)O)C(N)=O)NC(=O)[C@H](CCCCN)NC(=O)[C@H](CC(=O)O)NC(=O)[C@H](CC(C)C)NC(=O)[C@H](Cc2ccccc2)NC(=O)[C@H]([C@@H](C)O)NC(=O)[C@H](CCCCN)NC1=O (Ac-IEEQ[R8]KTFLDK[S5]NHE-NH2; staple (E) 5-12) | 12.2
Ac-HEAEDLFYQS-NH2 | 5.9

Test system: SARS‐CoV‐2 spike (Wuhan‐Hu‐1 strain) pseudovirus with HIV core, entry into 293 T ACE2 expressing cells
Test: not given
Type: cell-based
Settings: not given

Molecule | inhibition of viral entry
Ac-IEEQAKTFLDKFNHER8EDLFYQS5-NH2 (sidechain bridge or staple) [Peptide 8] | None of these compounds including stapled peptide 8 inhibited viral entry
IEEQAKR8FLDKFNS5EAEDLFYQS (sidechain bridge or staple) [Stapled negative control] | None of these compounds including stapled peptide 8 inhibited viral entry
Ac-FHTSEYDEQNEIEAAQLFKDFLK-NH2 [Scrambled negative control] | None of these compounds including stapled peptide 8 inhibited viral entry

Test system: not given
Test: not given
Type: physicochemical
Settings: pH 7.4

Molecule | % Helicity
Ac-IEEQR8KTFLDKS5NHE-NH2 (sidechain bridge or staple) [Peptide 12] | 12.2%
Ac-IEEQAKTFR8DKFNHES5EDLFYQS-NH2 (sidechain bridge or staple) [Peptide 5] | 31.3%
Ac-IEEQAKTFLDKFNHER8EDLFYQS5-NH2 (sidechain bridge or staple) [Peptide 8] | 72% and 72.2%
Ac-IEEQAKTFLDKFR8HEAEDLS5YQS-NH2 (sidechain bridge or staple) [Peptide 7] | 54.5%
Ac-TFLDKFNHEAEDL-NH2 [Peptide 13] | 8.6%
Ac-TFR8DKFNHES5EDL-NH2 (sidechain bridge or staple) [Peptide 14] | 16.1%
Ac-HEAEDLFYQS-NH2 [Peptide 9] | 5.9%
Ac-IEEQAR8TFLDKFS5HEAEDLFYQS-NH2 (sidechain bridge or staple) [Peptide 4] | 57.9%
Ac-IEEQR8KTFLDKS5NHEAEDLFYQS-NH2 (sidechain bridge or staple) [Peptide 3] | 55.6%
Ac-TS5LDKS5NHEAEDL-NH2 (sidechain bridge or staple) [Peptide 15] | 21.0%
Ac-IEEQAKTFLDKR8NHEAEDS5FYQS-NH2 (sidechain bridge or staple) [Peptide 6] | 23.5%
Ac-IEEQAKTFLDKFNHE-NH2 [Peptide 11] | 9.6%
Ac-IR8EQAKTFS5LKFNHEAEDLFYQS-NH2 (sidechain bridge or staple) [Peptide 2] | 35.4%

— PMC7883042 (Peptide Science (Hoboken, N.j.), 2021)
